Experimental data published in patent publication US11584747B2, “Substituted pyridopyrimidinonyl compounds useful as T cell activators” (BRISTOL-MYERS SQUIBB COMPANY, priority 2019, dated 2023).
Where two headings read alike, the source gives them in different places.

What was measured:
[1] = test system: human venous whole blood (IFN-γ); assay: Human whole blood IFN-γ assay; format: cell-based; settings: whole blood, normalized to 3 μM reference compound as 100% activation, read-out: IFN-γ Whole Blood Normalized EC50
Procedure: Human venous whole blood (22.5 μL per well), obtained from healthy donors, was pre-treated with compounds for one hour at 37° C. in a humidified 95% air/5% CO2 incubator. The blood was stimulated with 2.5 μL anti-human CD3 and anti-CD28 mAb at a final concentration of 1 μg/mL each for 24 hours at 37° C. IFN-γ in the supernatants was measured using AlphLISA kit (Cat #AL217).

[2] = target: T1, human DGKα (Homo sapiens (Human), UniProt P23743); assay: DGKα LIPGLO assay (extruded liposome substrate, ADP-Glo luminescence); format: biochemical; settings: liposome assay; read-out: DGK alpha LIPGLO IC50
[3] = target: human DGKζ (Homo sapiens (Human), UniProt Q13574); assay: DGKζ LIPGLO assay (extruded liposome substrate, ADP-Glo luminescence); format: biochemical; settings: liposome assay; read-out: DGK zeta LIPGLO IC50
[4] = target: T1, human DGKα; assay: DGKα ADPGLO assay (detergent/lipid micelle substrate); format: biochemical; settings: truncated DGK alpha; read-out: DGK alpha ADPGLO (Truncated) IC50
Procedure: DGK Alpha ADPGLO (Truncated) IC50 (uM)
The detergent/lipid micelle was prepared by combining 15 g phosphatidylserine (Avanti 840035P) and 1 g diacylglycerol (8008110) and dissolving into 150 mL chloroform in a 2 L round bottom flask. Chloroform was removed under high vacuum by rotary evaporation. […] The lipid/detergent solution was split into 5 mL aliquots and stored at −80° C.

[5] = test system: whole blood (pERK); assay: pERK Whole Blood assay (Table A; no whole-blood pERK method described); format: cell-based; settings: normalized

T1 sequence (P23743 whole entry, looked up): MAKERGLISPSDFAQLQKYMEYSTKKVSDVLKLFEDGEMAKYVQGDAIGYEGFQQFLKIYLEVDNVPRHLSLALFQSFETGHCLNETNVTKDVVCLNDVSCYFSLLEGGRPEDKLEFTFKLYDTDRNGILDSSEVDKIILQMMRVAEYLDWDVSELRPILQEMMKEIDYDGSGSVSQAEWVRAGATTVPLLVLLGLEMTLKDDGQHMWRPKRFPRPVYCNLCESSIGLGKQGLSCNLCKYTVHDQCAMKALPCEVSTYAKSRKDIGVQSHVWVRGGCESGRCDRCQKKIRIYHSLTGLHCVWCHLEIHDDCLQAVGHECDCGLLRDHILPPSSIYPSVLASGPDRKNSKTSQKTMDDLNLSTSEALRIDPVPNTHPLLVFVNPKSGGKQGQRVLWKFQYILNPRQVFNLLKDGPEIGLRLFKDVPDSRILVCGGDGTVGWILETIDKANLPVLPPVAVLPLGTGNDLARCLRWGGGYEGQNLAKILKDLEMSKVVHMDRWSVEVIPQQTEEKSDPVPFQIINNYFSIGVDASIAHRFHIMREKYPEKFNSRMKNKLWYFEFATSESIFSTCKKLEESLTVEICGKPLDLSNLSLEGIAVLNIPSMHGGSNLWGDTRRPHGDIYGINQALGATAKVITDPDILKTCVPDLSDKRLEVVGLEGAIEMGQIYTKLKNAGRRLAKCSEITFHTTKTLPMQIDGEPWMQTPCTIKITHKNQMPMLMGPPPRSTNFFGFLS
Sequence of human DGKζ (Q13574 other isoform, or with tags, fused parts or gaps): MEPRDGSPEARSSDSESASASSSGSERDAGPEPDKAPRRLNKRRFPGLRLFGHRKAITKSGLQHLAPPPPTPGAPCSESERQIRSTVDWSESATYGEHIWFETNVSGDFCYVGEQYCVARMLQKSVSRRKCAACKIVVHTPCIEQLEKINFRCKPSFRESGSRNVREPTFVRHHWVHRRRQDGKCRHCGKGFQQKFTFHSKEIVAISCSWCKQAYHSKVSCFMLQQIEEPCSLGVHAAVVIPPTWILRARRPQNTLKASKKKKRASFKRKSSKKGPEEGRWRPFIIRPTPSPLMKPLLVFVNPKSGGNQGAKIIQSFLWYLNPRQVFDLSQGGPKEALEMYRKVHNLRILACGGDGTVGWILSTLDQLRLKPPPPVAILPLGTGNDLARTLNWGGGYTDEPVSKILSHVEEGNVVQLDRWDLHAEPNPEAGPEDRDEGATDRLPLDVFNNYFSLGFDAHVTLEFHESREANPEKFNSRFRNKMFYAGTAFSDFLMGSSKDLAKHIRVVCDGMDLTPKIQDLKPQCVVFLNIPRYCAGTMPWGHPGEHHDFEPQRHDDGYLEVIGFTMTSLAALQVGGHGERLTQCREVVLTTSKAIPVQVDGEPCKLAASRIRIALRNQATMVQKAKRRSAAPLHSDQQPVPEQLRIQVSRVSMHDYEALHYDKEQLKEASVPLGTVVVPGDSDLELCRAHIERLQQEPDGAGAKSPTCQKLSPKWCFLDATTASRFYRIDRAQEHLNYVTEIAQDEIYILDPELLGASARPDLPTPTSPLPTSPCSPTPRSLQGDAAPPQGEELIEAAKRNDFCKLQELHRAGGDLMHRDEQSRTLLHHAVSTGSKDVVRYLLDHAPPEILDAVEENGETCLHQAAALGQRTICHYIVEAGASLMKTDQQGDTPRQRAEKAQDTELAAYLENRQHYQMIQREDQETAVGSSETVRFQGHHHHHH

Structure (SMILES)	IC50 [2] [nM]	IC50 [3] [nM]	IC50 [4] [nM]	EC50 [1] [nM]	IC50 [5] [nM]	EC50 ([1]; Homo sapiens) [nM]
CC[C@H]1CN(C(C)c2ccc(C(F)(F)F)cc2F)[C@H](CC)CN1c1nc(=O)n(C)c2ccc(C#N)nc12 (single isomer, unassigned) [Example 26]	81	210	29	180	240	
CC[C@@H]1CN(c2nc(=O)n(C)c3ccc(C#N)nc23)[C@@H](C)CN1C(c1ccc(OC(F)(F)F)cc1)c1cc(C2CC2)on1 (single isomer, unassigned) [Example 100]	250	110	11		320	44
CC[C@@H]1CN(c2nc(=O)n(C)c3ccc(C#N)nc23)[C@@H](C)CN1C(c1ccc(F)cc1)c1nc(C2CC2)no1 (stereo partly drawn) [Example 112, 4-((2S,5R)-4-((3-cyclopropyl-1,2,4-oxadiazol-5-yl)(4-fluorophenyl)methyl)-5-ethyl-2-methylpiperazin-1-yl)-1-methyl-2-oxo-1,2-dihydropyrido[3,2-d]pyrimidine-6-carbonitrile]	43	22	11	11	15	
CC[C@@H]1CN(c2nc(=O)n(C)c3ccc(C#N)nc23)[C@@H](C)CN1C(c1ccc(F)cc1)c1ccc(C(F)(F)F)nc1 (single isomer, unassigned) [Example 98]	310	55	26	88	140	
CCC(c1ccc(OC(F)(F)F)cc1)N1C[C@H](CC)N(c2nc(=O)n(C)c3ccc(C#N)nc23)C[C@H]1CC (single isomer, unassigned) [Example 36]	16	75	190	82	250	
CC[C@@H]1CN(c2nc(=O)n(C)c3ccc(C#N)nc23)[C@@H](C)CN1C(c1ccc(OC(F)(F)F)cc1)c1cc(C2CC2)on1 (stereo partly drawn) [Example 99, 4-((2S,5R)-4-((5-cyclopropylisoxazol-3-yl)(4-(trifluoromethoxy)phenyl)methyl)-5-ethyl-2-methylpiperazin-1-yl)-1-methyl-2-oxo-1,2-dihydropyrido[3,2-d]pyrimidine-6-carbonitrile]	130	120	4		140	120
CC[C@H]1CN(C(C)c2ccc(C(C)(C)C#N)cc2)[C@H](CC)CN1c1nc(=O)n(C)c2ccc(C#N)nc12 (stereo partly drawn) [Example 196, 4-((2S,5R)-4-(1-(4-(2-cyanopropan-2-yl)phenyl)ethyl)-2,5-diethylpiperazin-1-yl)-1-methyl-2-oxo-1,2-dihydropyrido[3,2-d]pyrimidine-6-carbonitrile]	120	12		31	49	
CC(c1ccc(OC(F)(F)F)cc1F)N1C[C@H](C)N(c2nc(=O)n(C)c3ccc(C#N)nc23)C[C@H]1C (single isomer, unassigned) [Example 142]	52	230			100	3650
CCC(c1ccc(OC(F)(F)F)cc1F)N1C[C@H](CC)N(c2nc(=O)n(C)c3ccc(C#N)nc23)C[C@H]1CC (single isomer, unassigned) [Example 12]	410	600			600	4150
CC[C@H]1CN(C(c2ccc(F)cc2)c2ccc(C(F)(F)F)cn2)[C@H](CC)CN1c1nc(=O)n(C)c2ccc(C#N)nc12 (single isomer, unassigned) [Example 1]	16	36		27	1040	
CC[C@@H]1CN(c2nc(=O)n(C)c3ccc(C#N)nc23)[C@@H](C)CN1C(c1ccc(OC(F)(F)F)cc1)c1ccccn1 (single isomer, unassigned) [Example 94]	200	86	16	43	220	
C[C@@H]1CN(c2nc(=O)n(C)c3ccc(C#N)nc23)[C@@H](C)CN1C(c1ccc(F)cc1)c1ccc(F)cc1 [Example 124, 4-((2S,5R)-4-(bis(4-fluorophenyl)methyl)-2,5-dimethylpiperazin-1-yl)-1-methyl-2-oxo-1,2-dihydropyrido[3,2-d]pyrimidine-6-carbonitrile]	560	2560			270	500

More lines, in order of falling IC50 [2], values ahead:

IC50 [2] [nM]	IC50 [3] [nM]	IC50 [4] [nM]	Structure (SMILES)	EC50 [1] [nM]	IC50 [5] [nM]	EC50 ([1]; Homo sapiens) [nM]
8290	42		CC[C@H]1CN(C(c2ccc(F)cc2)c2nc(C3CC3)nn2C)[C@H](CC)CN1c1nc(=O)n(C)c2ccc(C#N)nc12 (single isomer, unassigned) [Example 294]		200	660
7230	820	100	CC[C@H]1CN(C(c2ccc(F)cc2)c2nc(C3CC3)nn2C)[C@H](CC)CN1c1nc(=O)n(C)c2ccc(C#N)nc12 (single isomer, unassigned) [Example 295]	580	100	
3220	2090	54	CCC(c1ccc(OC(F)(F)F)cc1)N1C[C@H](C)N(c2nc(=O)n(C)c3ccc(C#N)nc23)C[C@H]1CC (single isomer, unassigned) [Example 84]	670	780	
630	45	210	CC[C@@H]1CN(c2nc(=O)n(C)c3ccc(C#N)nc23)[C@@H](C)CN1C(c1ccc(F)cc1)c1ccc(C(F)(F)F)nc1 (single isomer, unassigned) [Example 97]		380	99
350	36		CC[C@H]1CN(C(C)c2ccc3c(c2)OC(F)(F)O3)[C@H](CC)CN1c1nc(=O)n(C)c2ccc(C#N)nc12 (single isomer, unassigned) [Example 14]	94	900	
210	91	66	CCC(c1ccc(OC(F)(F)F)cc1F)N1C[C@H](C)N(c2nc(=O)n(C)c3ccc(C#N)nc23)C[C@H]1CC (single isomer, unassigned) [Example 85]	22	66	
140	36		CC[C@H]1CN(C(C)c2ccc(C(F)(F)F)cc2)[C@H](CC)CN1c1nc(=O)n(C)c2ccc(C#N)nc12 (single isomer, unassigned) [Example 20]	60	130	
97	160	15	CCC(c1ccc(OC(F)(F)F)cc1)N1C[C@H](C)N(c2nc(=O)n(C)c3ccc(C#N)nc23)C[C@H]1CC (single isomer, unassigned) [Example 83]	17	87	
83	2690		CC(c1ccc(OC(F)(F)F)cc1)N1C[C@H](C)N(c2nc(=O)n(C)c3ccc(C#N)nc23)C[C@H]1CO (single isomer, unassigned) [Example 183]	2330	270	
78	110	7	CC[C@H]1CN(C(c2ccc(OC(F)(F)F)cc2)c2cc(C3CC3)on2)[C@H](CC)CN1c1nc(=O)n(C)c2ccc(C#N)nc12 (single isomer, unassigned) [Example 42]		350	81
55	110	60	CCC(c1ccc(C(F)(F)F)cc1)N1C[C@H](C)N(c2nc(=O)n(C)c3ccc(C#N)nc23)C[C@H]1CC (single isomer, unassigned) [Example 89]		260	35
47	46	10	CC[C@@H]1CN(c2nc(=O)n(C)c3ccc(C#N)nc23)[C@@H](C)CN1C(c1ccc(F)cc1)c1nc(C2CC2)no1 (stereo partly drawn) [Example 113, 4-((2S,5R)-4-((3-cyclopropyl-1,2,4-oxadiazol-5-yl)(4-fluorophenyl)methyl)-5-ethyl-2-methylpiperazin-1-yl)-1-methyl-2-oxo-1,2-dihydropyrido[3,2-d]pyrimidine-6-carbonitrile]	57	170	
39	33		CC[C@@H]1CN(c2nc(=O)n(C)c3ccc(C#N)nc23)[C@@H](C)CN1C(c1ccc(F)cc1)c1ccc(C2CC2)cn1 (single isomer, unassigned) [Example 75]	30	100	
29	92		CCC(c1ccc(OC(F)(F)F)cc1F)N1C[C@H](C)N(c2nc(=O)n(C)c3ccc(C#N)nc23)C[C@H]1C (single isomer, unassigned) [Example 152]	200	110	
22	130	82	CC[C@H]1CN(C(c2ccc(OC(F)(F)F)cc2)c2cc(C3CC3)on2)[C@H](CC)CN1c1nc(=O)n(C)c2ccc(C#N)nc12 (single isomer, unassigned) [Example 43]	120	340	
